Measured values from patent US7910556B2, “PAR-2 agonist” (Kowa Company, Ltd., priority 2004, dated 2011).
Like-named read-outs stand apart in the source and are kept apart here. Square brackets hold non-standard residues; d marks the D form. Ends that are not written are not given here. Peptide text beside a SMILES is read from it. * marks the point of attachment. Arg(NO2) = N=C(NCCC[C@H](N)C(=O)O)N[N+](=O)[O-]; NHCH2CH2(piperidin-1-yl) = C1CCN(CCN*)CC1; Benzofuran(2-CO) = O=C(c1cc2ccccc2o1)*; Imidazole4carbonyl = O=C(c1cnc[nH]1)*; Isoxazole(3-carbonyl) = O=C(c1ccon1)*; Cha = N[C@@H](CC1CCCCC1)C(=O)O; Nicotinoyl = O=C(c1cccnc1)*; Picolinoyl = O=C(c1ccccn1)*; 2Furoyl = O=C(c1ccco1)*; X1 = Cc1cc(C(=O)*)oc1C; X2 = O=C(c1ccc(Br)o1)*; Bz = O=C(c1ccccc1)*

T1: PAR-2 (Homo sapiens, UniProt P55085)
T1 sequence (P55085 26-397): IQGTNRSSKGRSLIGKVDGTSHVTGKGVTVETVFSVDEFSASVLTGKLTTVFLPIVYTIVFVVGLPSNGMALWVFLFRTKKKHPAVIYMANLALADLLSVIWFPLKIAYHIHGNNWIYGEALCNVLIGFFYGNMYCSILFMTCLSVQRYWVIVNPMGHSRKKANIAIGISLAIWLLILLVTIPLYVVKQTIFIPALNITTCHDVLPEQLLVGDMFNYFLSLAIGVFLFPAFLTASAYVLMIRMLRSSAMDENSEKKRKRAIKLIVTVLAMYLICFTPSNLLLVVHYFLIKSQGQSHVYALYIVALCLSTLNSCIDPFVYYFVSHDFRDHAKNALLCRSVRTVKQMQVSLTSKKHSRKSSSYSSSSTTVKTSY

T2: human PAR-2 (Protease-activated receptor-2) (human, UniProt P55085 37-397)
T2 sequence (looked up): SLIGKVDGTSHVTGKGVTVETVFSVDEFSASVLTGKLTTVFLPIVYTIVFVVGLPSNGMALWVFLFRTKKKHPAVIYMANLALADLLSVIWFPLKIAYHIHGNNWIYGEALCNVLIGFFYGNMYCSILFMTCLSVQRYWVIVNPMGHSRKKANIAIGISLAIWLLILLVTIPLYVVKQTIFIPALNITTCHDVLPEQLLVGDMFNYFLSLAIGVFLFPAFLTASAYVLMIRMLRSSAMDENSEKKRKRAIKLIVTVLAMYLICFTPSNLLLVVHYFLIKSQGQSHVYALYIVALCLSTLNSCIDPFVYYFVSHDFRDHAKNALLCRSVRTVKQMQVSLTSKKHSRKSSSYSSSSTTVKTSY


Assays:
[1] = target: human PAR-2 (Protease-activated receptor-2) (human) (UniProt P55085); test: cell-based or functional assay
PAR-2 [2] = target: T1, PAR-2; test: Intracellular calcium dynamics assay (modified Hawthorne et al. method) in HCT-15 cells; format: cell-based; parameters: endogenous in cells; host or cells: HCT-15 human colorectal adenocarcinoma cells; conditions: for agonist activation compared with the comparative peptide SLIGKV-OH: HCT-15 cells, calcium assay, statement in words
Source text: The PAR-2 activation of peptide derivatives represented by the general formula (1) can be tested by known various methods. For example, PAR-2 activation of peptide derivates can be tested by the methods namely, “Hollenberg method” (Hollenberg, M. D., et al., Can. J. Physiol. Pharmacol., 75, 832-841 (1997)), “Kawabata et al. method” (Kawabata, A., et al., J. Pharmacol. Exp. Ther., 288, 358-370 (1999)), “Howthorne et al. method” (Howthorne et al., A High-Throughput Microtiter Plate-Based Calcium Assay for the Study of Protease-Activated Receptor 2 Activation, Analytical Biochemistry 290, 378-379 (2001)), and the like. The present inventors tested PAR-2 activation potency by the modified “Hawthorne et al. method”. More specifically the method is to assay intracellular calcium dynamic expressing human PAR-2 inherently. In this assay, under probenecid inhibiting anion-exchange transporter the inventors measured intracellular calcium dynamic mediated PAR-2 agonist(concentration variation) by a multiple-well plate reader wherein introducing Ca^2+ sensitive fluorescent dye and stimulating this cell by PAR-2 agonist.
This method is explained below in more detail.
Thereafter, the cells were stimulated with various concentration test compounds and measured at an excitation wavelength of 485 nm and at a measurement wavelength of 525 nm (cut-off 515 nm) with a fluorometer scanning a multiple well (Flex Station, Molecular Devices). As a comparative compound, SLIGKV-OH which is a known PAR-2 activated peptide was used.

PAR-2 [3] = target: T1, PAR-2; conditions: relative to TRAP (tethered receptor agonist peptide); cited from earlier work
[4] = target: T2, human PAR-2 (Protease-activated …); test: cell-based or functional assay

Molecule | Agonist activity (EC50, µM); intracellular calcium, HCT-15 cells [1] [µM] | EC50 (PAR-2 [2]) [µM] | further results
2-furoyl-L-phenylalanyl-glycyl-glycyl-β-cyclohexyl-L-alanine 2-(1-piperidinyl)ethyl amide (peptide) | 2.9 | – | –
2-furoyl-β-cyclohexyl-L-alanyl-glycyl-glycyl-β-cyclohexyl-L-alanine 2-(1-piperidinyl)ethyl amide (peptide) | 16.5 | – | –
4,5-dimethyl-2-furoyl-β-cyclohexyl-L-alanyl-glycyl-glycyl-β-cyclohexyl-L-alanine 2-(1-piperidinyl)ethyl amide (peptide) | 16.5 | – | –
5-bromo-2-furoyl-β-cyclohexyl-L-alanyl-glycyl-glycyl-β-cyclohexyl-L-alanine 2-(1-piperidinyl)ethyl amide (peptide) | 0.7 | – | –
O=C(CNC(=O)[C@H](CC1CCCCC1)NC(=O)c1ccco1)NCC(=O)N[C@@H](CC1CCCCC1)C(=O)NCCN1CCCCC1 [Example 1, 2-furoyl-β-cyclohexyl-L-alanyl-glycyl-glycyl-β-cyclohexyl-L-alanyine 2-(1-piperidinyl)ethyl amide] (2Furoyl-[Cha]GG[Cha]-{NHCH2CH2(piperidin-1-yl)}) | – | 16.5 ± 3.4 | agonist activation compared with the comparative peptide SLIGKV-OH (PAR-2 [2]): almost same as the comparative peptide
O=C(CNC(=O)[C@H](Cc1ccccc1)NC(=O)c1ccco1)NCC(=O)N[C@@H](CC1CCCCC1)C(=O)NCCN1CCCCC1 [Example 2, 2-furoyl-L-phenylalanyl-glycyl-glycyl-β-cyclohexyl-L-alanine 2-(1-piperidinyl)ethyl amide] (2Furoyl-FGG[Cha]-{NHCH2CH2(piperidin-1-yl)}) | – | 2.9 ± 0.6 | –
O=C(CNC(=O)[C@H](CC1CCCCC1)NC(=O)c1ccc(Br)o1)NCC(=O)N[C@@H](CC1CCCCC1)C(=O)NCCN1CCCCC1 [Example 3, 5-bromo-2-furoyl-β-cyclohexyl-L-alanyl-glycyl-glycyl-β-cyclohexyl-L-alanine 2-(1-piperidinyl)ethyl amide] (X2-[Cha]GG[Cha]-{NHCH2CH2(piperidin-1-yl)}) | – | 0.7 ± 0.2 | –
O=C(CNC(=O)[C@H](CC1CCCCC1)NC(=O)c1cccnc1)NCC(=O)N[C@@H](CC1CCCCC1)C(=O)NCCN1CCCCC1 [Example 4, nicotinoyl-β-cyclohexyl-L-alanyl-glycyl-glycyl-β-cyclohexyl-L-alanine 2-(1-piperidinyl)ethyl amide] (Nicotinoyl-[Cha]GG[Cha]-{NHCH2CH2(piperidin-1-yl)}) | – | 1.6 ± 0.1 | –
O=C(CNC(=O)[C@H](CC1CCCCC1)NC(=O)c1cc2ccccc2o1)NCC(=O)N[C@@H](CC1CCCCC1)C(=O)NCCN1CCCCC1 [Example 5, benzofuran-2-carbonyl-β-cyclohexyl-L-alanyl-glycyl-glycyl-β-cyclohexyl-L-alanine 2-(1-piperidinyl)ethyl amide] ({Benzofuran(2-CO)}-[Cha]GG[Cha]-{NHCH2CH2(piperidin-1-yl)}) | – | 0.8 ± 0.2 | –
O=C(CNC(=O)[C@H](CC1CCCCC1)NC(=O)c1ccon1)NCC(=O)N[C@@H](CC1CCCCC1)C(=O)NCCN1CCCCC1 [Example 6, isoxazole-3-carbonyl-β-cyclohexyl-L-alanyl-glycyl-glycyl-β-cyclohexyl-L-alanine 2-(1-piperidinyl)ethyl amide] ({Isoxazole(3-carbonyl)}-[Cha]GG[Cha]-{NHCH2CH2(piperidin-1-yl)}) | – | 6.6 ± 3.1 | –
O=C(CNC(=O)[C@H](CC1CCCCC1)NC(=O)c1ccccn1)NCC(=O)N[C@@H](CC1CCCCC1)C(=O)NCCN1CCCCC1 [Example 7, picolinoyl-β-cyclohexyl-L-alanyl-glycyl-glycyl-β-cyclohexyl-L-alanine 2-(1-piperidinyl)ethyl amide] (Picolinoyl-[Cha]GG[Cha]-{NHCH2CH2(piperidin-1-yl)}) | – | 7.6 ± 2.6 | –
Cc1cc(C(=O)N[C@@H](CC2CCCCC2)C(=O)NCC(=O)NCC(=O)N[C@@H](CC2CCCCC2)C(=O)NCCN2CCCCC2)oc1C [Example 8, 4,5-dimethyl-2-furoyl-β-cyclohexyl-L-alanyl-glycyl-glycyl-β-cyclohexyl-L-alanine 2-(1-piperidinyl)ethyl amide] (X1-[Cha]GG[Cha]-{NHCH2CH2(piperidin-1-yl)}) | – | – | agonist activation compared with the comparative peptide SLIGKV-OH (PAR-2 [2]): almost same as the comparative peptide; EC50 (PAR-2 [2]; HCT-15 human colorectal adenocarcinoma cells expressing PAR-2 inherently, Ca2+ sensitive fluorescent dye, 2.5 mM probenecid, read-out: Agonist activity (EC50)): 16.5 ± 2.1 µM
O=C(CNC(=O)[C@H](CC1CCCCC1)NC(=O)c1cnc[nH]1)NCC(=O)N[C@@H](CC1CCCCC1)C(=O)NCCN1CCCCC1 [Example 9, imidazole-4-carbonyl-β-cyclohexyl-L-alanyl-glycyl-glycyl-β-cyclohexyl-L-alanine 2-(1-piperidinyl)ethyl amide] (Imidazole4carbonyl-[Cha]GG[Cha]-{NHCH2CH2(piperidin-1-yl)}) | – | 14.9 ± 1.3 | agonist activation compared with the comparative peptide SLIGKV-OH (PAR-2 [2]): almost same as the comparative peptide
CC(C)C[C@H](NC(=O)[C@H](CCCNC(=N)N[N+](=O)[O-])NC(=O)c1ccccc1)C(N)=O [N^60-benzoyl-Arg(NO2)-Leu-NH2] (Bz-[Arg(NO2)]-Leu-NH2) | – | – | PAR-2 activation, action strength relative to TRAP (PAR-2 [3]): about one of hundred action strength of TRAP
benzofuran-2-carbonyl-β-cyclohexyl-L-alanyl-glycyl-glycyl-β-cyclohexyl-L-alanine 2-(1-piperidinyl)ethyl amide (peptide) | 0.8 | – | –
imidazole-4-carbonyl-β-cyclohexyl-L-alanyl-glycyl-glycyl-β-cyclohexyl-L-alanine 2-(1-piperidinyl)ethyl amide (peptide) | 14.9 | – | –
isoxazole-3-carbonyl-β-cyclohexyl-L-alanyl-glycyl-glycyl-β-cyclohexyl-L-alanine 2-(1-piperidinyl)ethyl amide (peptide) | 6.6 | – | –
nicotinoyl-β-cyclohexyl-L-alanyl-glycyl-glycyl-β-cyclohexyl-L-alanine 2-(1-piperidinyl)ethyl amide (peptide) | 1.6 | – | –
picolinoyl-β-cyclohexyl-L-alanyl-glycyl-glycyl-β-cyclohexyl-L-alanine 2-(1-piperidinyl)ethyl amide (peptide) | 7.6 | – | –
SLIGKV-OH [SLIGKV-OH (Ser-Leu-Ile-Gly-Lys-Val-OH)] | – | – | Agonist activity (EC50, µM); intracellular calcium, HCT-15 cells [4]: 15.6 µM
